In patent EP4578861A1, “NOVEL TRICYCLIC HETEROCYCLIC CARBALDEHYDE COMPOUND AND PHARMACEUTICAL COMPOSITION, CONTAINING SAME, FOR IRE1ALPHA INHIBITION” (Hanmi Pharm. Co., Ltd., priority 2022, dated 2024):

system: spliced XBP1; experiment: Spliced XBP1 mRNA measurement test (RT-PCR, tunicamycin-induced ER stress in MCF-7 cells); type: cell-based; conditions: Homo sapiens, MCF7, compound pre-treated for 1 hour, then 2 µg/mL tunicamycin for 6 or 24 hours, spliced XBP1 corrected by total XBP1
Protocol: With respect to these synthetic compounds, reverse transcription polymerase chain reaction (RT-PCR) experiments were conducted on MCF-7 cancer cells to confirm the effect thereof on the mRNA and protein amounts of spliced XBP1, which is the target of IRE endonuclease. A reverse transcription polymerase chain reaction is a test method in which RNA is extracted from cells, reverse transcriptase is used to make cDNA, and relative mRNA expression level is measured through a polymerase chain reaction.
Briefly, MCF-7 cells were seeded in a 12-well plate and cultured in an incubator including 5% CO2 for one day. On the next day, compounds, which were 10-fold serially diluted from 10,000 nM, were pre-treated for 1 hour, and then, treated with 2 µg/mL tunicamycin for 6 or 24 hours to induce endoplasmic reticulum stress, followed by cell lysis to obtain RNA. RNA was subjected to the procedure of RNeasy Kits (Qiagen, 74106), and 5 µg of RNA sample was dissolved in a sample including reverse transcriptase and dNTP, and reverse transcription reaction was performed with a thermal cycler. The amount of mRNA of each of spliced XBP1 and total XBP1 was measured by a polymerase chain reaction through real time PCR by mixing each cDNA sample with a PCR reaction mixture including a primer pair capable of binding specifically to each target and SYBR green dye. The expression level of spliced XBP1 was corrected by the total expression level of XBP1, and the relative expression levels of spliced XBP1 between samples were compared and analyzed.

Structure (SMILES)	IC50 [nM]
Cc1c(CC(=O)N2CCOCC2)c(=O)oc2c(C=O)c(O)c3c(c12)OCO3 [Example 2, 4-hydroxy-9-methyl-8-(2-morpholino-2-oxoethyl)-7-oxo-7H-[1,3]dioxolo[4,5-f]chromene-5-carbaldehyde]	100 to 200
CC(=O)N1CCN(C(=O)Cc2c(C)c3c4c(c(O)c(C=O)c3oc2=O)OCCC4)CC1 [Example 26, 2-(2-(4-acetylpiperazin-1-yl)-2-oxoethyl)-6-hydroxy-1-methyl-3-oxo-3,8,9,10-tetrahydropyrano[3,2-f]chromene-5-carbaldehyde]	≥ 200
Cc1c(CC(=O)N2CCN(C)CC2)c(=O)oc2c(C=O)c(O)c3c(c12)CCCO3 [Example 6, 6-hydroxy-1-methyl-2-(2-(4-methylpiperazin-1-yl)-2-oxoethyl)-3-oxo-3,8,9,10-tetrahydropyrano[3,2-f]chromene-5-carbaldehyde]	< 100
Cc1c(CC(=O)N2CCSCC2)c(=O)oc2c(C=O)c(O)c3c(c12)CCCO3 [Example 28, 6-hydroxy-1-methyl-3-oxo-2-(2-oxo-2-thiomorpholinoethyl)-3,8,9,10-tetrahydropyrano[3,2-f]chromene-5-carbaldehyde]	100 to 200
CCc1c(CC(=O)N2CCCC2)c(=O)oc2c(C=O)c(O)c3c(c12)CCCO3 [Example 18, 1-ethyl-6-hydroxy-3-oxo-2-(2-oxo-2-(pyrrolidin-1-yl)ethyl)-3,8,9,10-tetrahydropyrano[3,2-f]chromene-5-carbaldehyde]	≥ 200
Cc1c(CC(=O)N2CC(F)C2)c(=O)oc2c(C=O)c(O)c3c(c12)CCCO3 [Example 19, 2-(2-(3-fluoroazetidin-1-yl)-2-oxoethyl)-6-hydroxy-1-methyl-3-oxo-3,8,9,10-tetrahydropyrano[3,2-f]chromene-5-carbaldehyde]	100 to 200
Cc1c(CC(=O)N2CCC(C)CC2)c(=O)oc2c(C=O)c(O)c3c(c12)CCCO3 [Example 4, 6-hydroxy-1-methyl-2-(2-(4-methylpiperidin-1-yl)-2-oxoethyl)-3-oxo-3,8,9,10-tetrahydropyrano[3,2-f]chromene-5-carbaldehyde]	≥ 200
COC1CCN(C(=O)Cc2c(C)c3c4c(c(O)c(C=O)c3oc2=O)OCCC4)C1 (stereo not shown) [Example 14, 6-hydroxy-2-(2-(3-methoxypyrrolidin-1-yl)-2-oxoethyl)-1-methyl-3-oxo-3,8,9,10-tetrahydropyrano[3,2-f]chromene-5-carbaldehyde]	100 to 200
Cc1c(CC(=O)N2CCCCC2)c(=O)oc2c(C=O)c(O)c3c(c12)CCCO3 [Example 21, 6-hydroxy-1-methyl-3-oxo-2-(2-oxo-2-(piperidin-1-yl)ethyl)-3,8,9,10-tetrahydropyrano[3,2-f]chromene-5-carbaldehyde]	≥ 200
Cc1c(CC(=O)N2CCC3(CC3)C2)c(=O)oc2c(C=O)c(O)c3c(c12)CCCO3 [Example 20, 6-hydroxy-1-methyl-3-oxo-2-(2-oxo-2-(5-azaspiro[2.4]heptan-5-yl)ethyl)-3,8,9,10-tetrahydropyrano[3,2-f]chromene-5-carbaldehyde]	100 to 200
Cc1c(CC(=O)N2CCC(C)(C)C2)c(=O)oc2c(C=O)c(O)c3c(c12)CCCO3 [Example 12, 2-(2-(3,3-dimethylpyrrolidin-1-yl)-2-oxoethyl)-6-hydroxy-1-methyl-3-oxo-3,8,9,10-tetrahydropyrano[3,2-f]chromene-5-carbaldehyde]	100 to 200
Cc1c(CC(=O)N2CCC(F)C2)c(=O)oc2c(C=O)c(O)c3c(c12)CCCO3 (stereo not shown) [Example 16, 2-(2-(3-fluoropyrrolidin-1-yl)-2-oxoethyl)-6-hydroxy-1-methyl-3-oxo-3,8,9,10-tetrahydropyrano[3,2-f]chromene-5-carbaldehyde]	≥ 200
COC1CN(C(=O)Cc2c(C)c3c4c(c(O)c(C=O)c3oc2=O)OCCC4)C1 [Example 15, 6-hydroxy-2-(2-(3-methoxyazetidin-1-yl)-2-oxoethyl)-1-methyl-3-oxo-3,8,9,10-tetrahydropyrano[3,2-f]chromene-5-carbaldehyde]	100 to 200
Cc1c(CC(=O)NCCN2CCOCC2)c(=O)oc2c(C=O)c(O)c3c(c12)CCCO3 [Example 29, 2-(5-formyl-6-hydroxy-1-methyl-3-oxo-3,8,9,10-tetrahydropyrano[3,2-f]chromen-2-yl)-N-(2-morpholinoethyl)acetamide]	≥ 200
Cc1c(CC(N)=O)c(=O)oc2c(C=O)c(O)c3c(c12)CCCO3 [Example 22, 2-(5-formyl-6-hydroxy-1-methyl-3-oxo-3,8,9,10-tetrahydropyrano[3,2-f]chromen-2-yl)acetamide]	≥ 200
Cc1c(CC(=O)N2CCNCC2)c(=O)oc2c(C=O)c(O)c3c(c12)CCCO3 [Example 31, 6-hydroxy-1-methyl-3-oxo-2-(2-oxo-2-(piperazin-1-yl)ethyl)-3,8,9,10-tetrahydropyrano[3,2-f]chromene-5-carbaldehyde]	≥ 200
Cc1c(CC(=O)N2CCC2)c(=O)oc2c(C=O)c(O)c3c(c12)CCCO3 [Example 13, 2-(2-(azetidin-1-yl)-2-oxoethyl)-6-hydroxy-1-methyl-3-oxo-3,8,9,10-tetrahydropyrano[3,2-f]chromene-5-carbaldehyde]	100 to 200
CC(C)c1c(CC(=O)N2CCCC2)c(=O)oc2c(C=O)c(O)c3c(c12)CCCO3 [Example 23, 6-hydroxy-1-isopropyl-3-oxo-2-(2-oxo-2-(pyrrolidin-1-yl)ethyl)-3,8,9,10-tetrahydropyrano[3,2-f]chromene-5-carbaldehyde]	100 to 200
CCN(CC)C(=O)Cc1c(C)c2c3c(c(O)c(C=O)c2oc1=O)OCC3 [Example 9, N,N-diethyl-2-(5-formyl-4-hydroxy-9-methyl-7-oxo-1,7-dihydro-2H-furo[3,2-f]chromen-8-yl)acetamide]	< 100

Next, values leading:

IC50 [nM]	Structure (SMILES)
< 100	Cc1c(CC(=O)N2CCCC2)c(=O)oc2c(C=O)c(O)c3c(c12)CCCO3 [Example 5, 6-hydroxy-1-methyl-3-oxo-2-(2-oxo-2-(pyrrolidin-1-yl)ethyl)-3,8,9,10-tetrahydropyrano[3,2-f]chromene-5-carbaldehyde]
< 100	CCN(CC)C(=O)Cc1c(C)c2c3c(c(O)c(C=O)c2oc1=O)OCCC3 [Example 25, N,N-diethyl-2-(5-formyl-6-hydroxy-1-methyl-3-oxo-3,8,9,10-tetrahydropyrano[3,2-f]chromen-2-yl)acetamide]
< 100	Cc1c(CC(=O)N2CCOCC2)c(=O)oc2c(C=O)c(O)c3c(c12)CCCO3 [Example 3, 6-hydroxy-1-methyl-2-(2-morpholino-2-oxoethyl)-3-oxo-3,8,9,10-tetrahydropyrano[3,2-f]chromene-5-carbaldehyde]
< 100	COCCNC(=O)Cc1c(C)c2c3c(c(O)c(C=O)c2oc1=O)OCCC3 [Example 24, 2-(5-formyl-6-hydroxy-1-methyl-3-oxo-3,8,9,10-tetrahydropyrano[3,2-f]chromen-2-yl)-N-(2-methoxyethyl)acetamide]
< 100	CCNC(=O)Cc1c(C)c2c3c(c(O)c(C=O)c2oc1=O)OCC3 [Example 8, N-ethyl-2-(5-formyl-4-hydroxy-9-methyl-7-oxo-1,7-dihydro-2H-furo[3,2-f]chromen-8-yl)acetamide]
< 100	CCNC(=O)Cc1c(C)c2c3c(c(O)c(C=O)c2oc1=O)OCCC3 [Example 17, N-ethyl-2-(5-formyl-6-hydroxy-1-methyl-3-oxo-3,8,9,10-tetrahydropyrano[3,2-f]chromen-2-yl)acetamide]
< 100	Cc1c(CC(=O)N2CC3CC2CO3)c(=O)oc2c(C=O)c(O)c3c(c12)CCCO3 (stereo not shown) [Example 27, 2-(2-(2-oxa-5-azabicyclo[2.2.1]heptan-5-yl)-2-oxoethyl)-6-hydroxy-1-methyl-3-oxo-3,8,9,10-tetrahydropyrano[3,2-f]chromene-5-carbaldehyde]
< 100	Cc1c(CC(=O)N2CCC(F)(F)C2)c(=O)oc2c(C=O)c(O)c3c(c12)CCCO3 [Example 10, 2-(2-(3,3-difluoropyrrolidin-1-yl)-2-oxoethyl)-6-hydroxy-1-methyl-3-oxo-3,8,9,10-tetrahydropyrano[3,2-f]chromene-5-carbaldehyde]
< 100	Cc1c(CC(=O)N2CCSC2)c(=O)oc2c(C=O)c(O)c3c(c12)CCCO3 [Example 30, 6-hydroxy-1-methyl-3-oxo-2-(2-oxo-2-(thiazolidin-3-yl)ethyl)-3,8,9,10-tetrahydropyrano[3,2-f]chromene-5-carbaldehyde]
< 100	Cc1c(CC(=O)N2CCOCC2)c(=O)oc2c(C=O)c(O)c3c(c12)CCO3 [Example 1, 4-hydroxy-9-methyl-8-(2-morpholino-2-oxoethyl)-7-oxo-1,7-dihydro-2H-furo[3,2-f]chromene-5-carbaldehyde]
< 100	Cc1c(CC(=O)N2CCC(C)C2)c(=O)oc2c(C=O)c(O)c3c(c12)CCCO3 (stereo not shown) [Example 11, 6-hydroxy-1-methyl-2-(2-(3-methylpyrrolidin-1-yl)-2-oxoethyl)-3-oxo-3,8,9,10-tetrahydropyrano[3,2-f]chromene-5-carbaldehyde]

same assay, conditions: compound pre-treated for 1 hour, then 2 µg/mL tunicamycin for 6 or 24 hours, spliced XBP1 corrected by total XBP1

IC50 [nM]	Structure (SMILES)
< 100	COc1cc2c(C)c(CC(=O)N3CCOCC3)c(=O)oc2c(C=O)c1O [MKC8866, reference compound]
